The values below come from PMC6471242, “Dereplication by High-Performance Liquid Chromatography (HPLC) with Quadrupole-Time-of-Flight Mass Spectroscopy (qTOF-MS) and Antiviral Activities of Phlorotannins from Ecklonia cava” (Marine Drugs, 2019).

The subject of data set [1] is hemagglutinin. Kind of data set: Western blot of viral protein synthesis in H1N1-infected MDCK cells, hemagglutinin. The settings on record: 5, 10, 20, and 40 μM, 24 h. (A western blot detects proteins with antibodies after separation by electrophoresis.)
In data set [2] the test system is neuraminidase. As to the kind of experiment: Western blot of viral protein synthesis in H1N1-infected MDCK cells, neuraminidase. The note with it: 5, 10, 20, and 40 μM, 24 h.
Data set [3] in a line: Cytotoxicity assay (MTT). The note with it: dog.
Data set [4] can be described thus: in vitro. The note with it: dog.

Each structure is given as a SMILES string. Entries after “also recorded” stand apart in the source; their conditions may differ. A value given as a limit tells only on which side of the number the result lay.

Regarding `Oc1cc(O)cc(Oc2c(O)cc(O)c3c2Oc2c(O)cc4oc5c(Oc6cc(O)cc(O)c6)c(O)cc(O)c5c4c2O3)c1` [Compound 12, Phlorofucofuroeckol A], the “inhibition of hemagglutinin expression (viral protein synthesis, Western blot)” value in data set [1] was “decreased the expression of neuraminidase and hemagglutinin at 10 μM; also recorded: strongest inhibition capacity was observed at 40 µM; also recorded: strong inhibitory effects”. For the same compound, the “inhibition of neuraminidase expression (viral protein synthesis, Western blot)” value in data set [2] is “decreased the expression of neuraminidase and hemagglutinin at 10 μM; also recorded: strongest inhibition capacity was observed at 40 µM; also recorded: strong inhibitory effects”. The compound further yielded a CC50 at 48 h in data set [3] above 100 µM.

As to `Oc1cc(O)c2oc3cc(O)c4oc5cc(O)cc(O)c5oc4c3oc2c1` [Compound 14, Dioxinodehydroeckol], the CC50 at 48 h in data set [4] was above 100 µM.

In data set [3], `Oc1cc(O)cc(Oc2c(O)cc(O)c3c2Oc2c(O)cc(Oc4c(O)cc(Oc5c(O)cc(O)c6c5Oc5c(O)cc(O)cc5O6)cc4O)cc2O3)c1` [Compound 11, Dieckol] displayed a CC50 at 48 h above 100 µM.

`Oc1cc(O)c2c(c1)Oc1c(O)cc(O)cc1O2` [Compound 13, Dibenzo[1,4]dioxine-2,4,7,9-tetraol] returned a CC50 at 48 h in data set [3] above 100 µM.
